Here are results for 15 compounds from article PMC11277932, “Australian Marine and Terrestrial Streptomyces-Derived Surugamides, and Synthetic Analogs, and Their Ability to Inhibit Dirofilaria immitis (Heartworm) Motility” (Marine Drugs, 2024).

≈ marks a conversion by molar mass, not a printed value. Square brackets hold non-standard residues; d marks the D form. Peptide text beside a SMILES is read from it. * marks the point of attachment. d(aIle) = CC[C@H](C)[C@@H](N)C(=O)O; hArg = N=C(N)NCCCC[C@H](N)C(=O)O; Lys(Me) = CNCCCC[C@H](N)C(=O)O; Lauroyl = CCCCCCCCCCCC(=O)*; Pyruvoyl = CC(=O)C(=O)*; Pentanoyl = CCCCC(=O)*; Propionyl = CCC(=O)*; Bz = O=C(c1ccccc1)*; For = O=C*

Test [1] relates to Haemonchus contortus L1–L3 larvae. The experiment in a line: microbe, parasite or virus in culture. The note with it: 96 h, read-out: H. contortus L1–L3 Larvae Development EC50.
Test [2] concerns human colorectal (SW620) carcinoma cells. The experiment in a line: cells. The conditions noted are these: SW-620, read-out: Human Colorectal Carcinoma Cells (SW620) IC50.
For test [3], the system named is Dirofilaria immitis microfilariae. The experiment in a line: microbe, parasite or virus in culture. The conditions noted are these: 72 h, read-out: D. immitis mf Motility EC50, ~72 h.
Test [4] relates to human colorectal (SW620) carcinoma cells. The note with it: MTT.
Test [5] deals with Dirofilaria immitis microfilariae. The conditions noted are these: pure compounds; ~72 h.
Test [6] deals with Haemonchus contortus L1–L3 larvae. The conditions noted are these: pure compounds; four days.
The next test has as its system Erwinia amylovora. More on the design: method as in PMID 24317473. The conditions noted are these: at 25 μM; cited from earlier work.
Another test has as its system Staphylococcus aureus. On the set-up: method as in PMID 24713874. The conditions noted are these: cited from earlier work.

As for `CCCC[C@H]1C(=O)O[C@H](C)[C@H](NC(=O)c2cccc(NC=O)c2O)C(=O)O[C@@H](C)[C@@H]1OC(=O)C(C)C` [antimycin A4a (1), antimycin A4a], the EC50 in test [1] is 3.5 µg/mL (≈ 6.91 µM); in test [3] it was 0.0013 to 0.0021 µg/mL (≈ 0.00257 to 0.00415 µM). Moreover, in test [2], the IC50 came out at 0.061 µg/mL (≈ 0.12 µM).
Consider `CCC(=O)NCCCC[C@@H]1NC(=O)[C@@H]([C@@H](C)CC)NC(=O)[C@H]([C@@H](C)CC)NC(=O)[C@@H](C)NC(=O)[C@H]([C@@H](C)CC)NC(=O)[C@@H](CC(C)C)NC(=O)[C@@H](Cc2ccccc2)NC(=O)[C@H]([C@@H](C)CC)NC1=O` [acyl-surugamide A3 (7), acyl-surugamide A3] (cyclo(I[d(aIle)]K(Propionyl)I[dF][dL]I[dA])), for which the “Human Colorectal Carcinoma Cells (SW620) IC50” value in test [4] was greater than 30 µg/mL. Also, the “D. immitis mf Motility EC50” value in test [5] is 3.3 µg/mL. Besides, the “H. contortus L1–L3 Larvae Development EC50” value in test [6] is greater than 25 µg/mL.
The like results for `CC[C@H](C)[C@@H]1NC(=O)[C@H](CCCCNC(=O)C(C)=O)NC(=O)[C@@H]([C@@H](C)CC)NC(=O)[C@H]([C@@H](C)CC)NC(=O)[C@@H](C)NC(=O)[C@H]([C@@H](C)CC)NC(=O)[C@@H](CC(C)C)NC(=O)[C@@H](Cc2ccccc2)NC1=O` [acyl-surugamide A4 (8), acyl-surugamide A4] (cyclo(I[d(aIle)]K(Pyruvoyl)I[dF][dL]I[dA])) were, in that order, greater than 30 µg/mL, 16.0 µg/mL and greater than 25 µg/mL.
The like results for `CCCCC(=O)NCCCC[C@@H]1NC(=O)[C@@H]([C@@H](C)CC)NC(=O)[C@H]([C@@H](C)CC)NC(=O)[C@@H](C)NC(=O)[C@H]([C@@H](C)CC)NC(=O)[C@@H](CC(C)C)NC(=O)[C@@H](Cc2ccccc2)NC(=O)[C@H]([C@@H](C)CC)NC1=O` [acyl-surugamide AS1 (13), acyl-surugamide AS1] (cyclo(I[d(aIle)]K(Pentanoyl)I[dF][dL]I[dA])) were, in that order, greater than 30 µg/mL, 21 µg/mL and greater than 25 µg/mL.
The like results for `CC[C@H](C)[C@@H]1NC(=O)[C@H](CCCCNC(=O)c2ccccc2)NC(=O)[C@@H]([C@@H](C)CC)NC(=O)[C@H]([C@@H](C)CC)NC(=O)[C@@H](C)NC(=O)[C@H]([C@@H](C)CC)NC(=O)[C@@H](CC(C)C)NC(=O)[C@@H](Cc2ccccc2)NC1=O` [acyl-surugamide AS3 (15), acyl-surugamide AS3] (cyclo(I[d(aIle)]K(Bz)I[dF][dL]I[dA])) were, in that order, greater than 30 µg/mL, 3.4 µg/mL and greater than 25 µg/mL.
Turning to `CC[C@H](C)[C@@H]1NC(=O)[C@H](C)NC(=O)[C@@H]([C@@H](C)CC)NC(=O)[C@H]([C@@H](C)CC)NC(=O)[C@@H](C)NC(=O)[C@H]([C@@H](C)CC)NC(=O)[C@@H](CC(C)C)NC(=O)[C@@H](Cc2ccccc2)NC1=O` [surugamide S3 (11), surugamide S3] (cyclo(I[d(aIle)]AI[dF][dL]I[dA])), in test [5], the “D. immitis mf Motility EC50” value was greater than 25 µg/mL. Also, in test [6], the “H. contortus L1–L3 Larvae Development EC50” value is greater than 25 µg/mL.
Turning to `CC[C@H](C)[C@@H]1NC(=O)[C@H](CCCCNC(C)=O)NC(=O)[C@@H]([C@@H](C)CC)NC(=O)[C@H]([C@@H](C)CC)NC(=O)[C@@H](C)NC(=O)[C@H]([C@@H](C)CC)NC(=O)[C@@H](CC(C)C)NC(=O)[C@@H](Cc2ccccc2)NC1=O` [acyl-surugamide A2 (6), acyl-surugamide A2] (cyclo(I[d(aIle)]K(Ac)I[dF][dL]I[dA])), the “Human Colorectal Carcinoma Cells (SW620) IC50” value in test [4] is greater than 30 µg/mL. Also, the “D. immitis mf Motility EC50” value in test [5] was greater than 25 µg/mL. Further, the “H. contortus L1–L3 Larvae Development EC50” value in test [6] was greater than 25 µg/mL.
Regarding `CC[C@H](C)[C@@H]1NC(=O)[C@H](CCCNC(=N)N)NC(=O)[C@@H]([C@@H](C)CC)NC(=O)[C@H]([C@@H](C)CC)NC(=O)[C@@H](C)NC(=O)[C@H]([C@@H](C)CC)NC(=O)[C@@H](CC(C)C)NC(=O)[C@@H](Cc2ccccc2)NC1=O` [surugamide S2 (10), surugamide S2] (cyclo(I[d(aIle)]RI[dF][dL]I[dA])), the “D. immitis mf Motility EC50” value in test [5] was greater than 25 µg/mL. In addition, the “H. contortus L1–L3 Larvae Development EC50” value in test [6] was greater than 25 µg/mL.
With `CC[C@H](C)[C@@H]1NC(=O)[C@H](CCCCN)NC(=O)[C@@H]([C@@H](C)CC)NC(=O)[C@H]([C@@H](C)CC)NC(=O)[C@@H](C)NC(=O)[C@H]([C@@H](C)CC)NC(=O)[C@@H](CC(C)C)NC(=O)[C@@H](Cc2ccccc2)NC1=O` [surugamide A (3), surugamide A] (cyclo(I[d(aIle)]KI[dF][dL]I[dA])), in the test on Erwinia amylovora, the “inhibition of Erwinia amylovora” value is given as 40%. The “Human Colorectal Carcinoma Cells (SW620) IC50” value in test [4] is greater than 30 µg/mL. In the test with Staphylococcus aureus, the “Staphylococcus aureus MIC” value is 10 µM. In addition, the “D. immitis mf Motility EC50” value in test [5] is greater than 25 µg/mL. The “H. contortus L1–L3 Larvae Development EC50” value in test [6] is greater than 25 µg/mL.
For the compound `CC[C@H](C)[C@@H]1NC(=O)[C@H](CCCCNC)NC(=O)[C@@H]([C@@H](C)CC)NC(=O)[C@H]([C@@H](C)CC)NC(=O)[C@@H](C)NC(=O)[C@H]([C@@H](C)CC)NC(=O)[C@@H](CC(C)C)NC(=O)[C@@H](Cc2ccccc2)NC1=O` [surugamide K (4), surugamide K] (cyclo(I[d(aIle)][Lys(Me)]I[dF][dL]I[dA])), the “Human Colorectal Carcinoma Cells (SW620) IC50” value in test [4] was greater than 30 µg/mL. In addition, the “D. immitis mf Motility EC50” value in test [5] was greater than 25 µg/mL. For the same compound, in test [6], the “H. contortus L1–L3 Larvae Development EC50” value was greater than 25 µg/mL.
As for `CCCCCCCCCCCC(=O)NCCCC[C@@H]1NC(=O)[C@@H]([C@@H](C)CC)NC(=O)[C@H]([C@@H](C)CC)NC(=O)[C@@H](C)NC(=O)[C@H]([C@@H](C)CC)NC(=O)[C@@H](CC(C)C)NC(=O)[C@@H](Cc2ccccc2)NC(=O)[C@H]([C@@H](C)CC)NC1=O` [acyl-surugamide AS2 (14), acyl-surugamide AS2] (cyclo(I[d(aIle)]K(Lauroyl)I[dF][dL]I[dA])), the “Human Colorectal Carcinoma Cells (SW620) IC50” value in test [4] was greater than 30 µg/mL. Also, in test [5], the “D. immitis mf Motility EC50” value was greater than 25 µg/mL. Besides, the “H. contortus L1–L3 Larvae Development EC50” value in test [6] is greater than 25 µg/mL.
With `CC[C@@H](C)[C@H]1NC(=O)[C@H]([C@@H](C)CC)NC(=O)[C@@H](C)NC(=O)[C@H]([C@@H](C)CC)NC(=O)[C@@H](CC(C)C)NC(=O)[C@@H](Cc2ccccc2)NC(=O)[C@H]([C@@H](C)CC)NC(=O)[C@H](CCCCN)NC1=O` [surugamide S1 (9), cyclo[-L-Ile^1-D-Ile^2-L-Lys^3-L-Ile^4-D-Phe^5-D-Leu^6-L-Ile^7-D-Ala^8-]] (cyclo(I[dI]KI[dF][dL]I[dA])), the “D. immitis mf Motility EC50” value in test [5] is greater than 25 µg/mL. Moreover, the “H. contortus L1–L3 Larvae Development EC50” value in test [6] was greater than 25 µg/mL.
`CCCCCC[C@H]1C(=O)O[C@H](C)[C@H](NC(=O)c2cccc(NC=O)c2O)C(=O)O[C@@H](C)[C@@H]1OC(=O)C(C)C` [antimycin A2a (2), antimycin A2a]: the EC50 in test [1] was 1.8 µg/mL (≈ 3.37 µM); in test [3], 0.0013 to 0.0021 µg/mL (≈ 0.00243 to 0.00393 µM). The IC50 in test [2] was determined as 0.08 µg/mL (≈ 0.15 µM).
`CC[C@H](C)[C@@H]1NC(=O)[C@H](CCCCNC=O)NC(=O)[C@@H]([C@@H](C)CC)NC(=O)[C@H]([C@@H](C)CC)NC(=O)[C@@H](C)NC(=O)[C@H]([C@@H](C)CC)NC(=O)[C@@H](CC(C)C)NC(=O)[C@@H](Cc2ccccc2)NC1=O` [acyl-surugamide A1 (5), acyl-surugamide A1] (cyclo(I[d(aIle)]K(For)I[dF][dL]I[dA])): in test [4], the “Human Colorectal Carcinoma Cells (SW620) IC50” value is greater than 30 µg/mL. Moreover, the “D. immitis mf Motility EC50” value in test [5] is greater than 25 µg/mL. The “H. contortus L1–L3 Larvae Development EC50” value in test [6] is greater than 25 µg/mL.
Take `CC[C@H](C)[C@@H]1NC(=O)[C@H](CCCCNC(=N)N)NC(=O)[C@@H]([C@@H](C)CC)NC(=O)[C@H]([C@@H](C)CC)NC(=O)[C@@H](C)NC(=O)[C@H]([C@@H](C)CC)NC(=O)[C@@H](CC(C)C)NC(=O)[C@@H](Cc2ccccc2)NC1=O` [surugamide S4 (12), surugamide S4] (cyclo(I[d(aIle)][hArg]I[dF][dL]I[dA])): the “D. immitis mf Motility EC50” value in test [5] is greater than 25 µg/mL. Further, the “H. contortus L1–L3 Larvae Development EC50” value in test [6] was greater than 25 µg/mL.

The term EC50 denotes the midpoint of the concentration-response curve. What is called IC50 is the point on the concentration scale where inhibition reaches its midpoint.
